Data set [1] deals with Transient receptor potential cation channel subfamily V member 1 (Homo sapiens, UniProt Q8NER1). The data set is described as follows: Inhibition of TRPV1 (unknown origin) by FLIPR assay.
Data set [2] addresses T1, Short transient receptor potential channel 3 (Homo sapiens, UniProt Q13507).
T1 sequence (Q13507 whole entry): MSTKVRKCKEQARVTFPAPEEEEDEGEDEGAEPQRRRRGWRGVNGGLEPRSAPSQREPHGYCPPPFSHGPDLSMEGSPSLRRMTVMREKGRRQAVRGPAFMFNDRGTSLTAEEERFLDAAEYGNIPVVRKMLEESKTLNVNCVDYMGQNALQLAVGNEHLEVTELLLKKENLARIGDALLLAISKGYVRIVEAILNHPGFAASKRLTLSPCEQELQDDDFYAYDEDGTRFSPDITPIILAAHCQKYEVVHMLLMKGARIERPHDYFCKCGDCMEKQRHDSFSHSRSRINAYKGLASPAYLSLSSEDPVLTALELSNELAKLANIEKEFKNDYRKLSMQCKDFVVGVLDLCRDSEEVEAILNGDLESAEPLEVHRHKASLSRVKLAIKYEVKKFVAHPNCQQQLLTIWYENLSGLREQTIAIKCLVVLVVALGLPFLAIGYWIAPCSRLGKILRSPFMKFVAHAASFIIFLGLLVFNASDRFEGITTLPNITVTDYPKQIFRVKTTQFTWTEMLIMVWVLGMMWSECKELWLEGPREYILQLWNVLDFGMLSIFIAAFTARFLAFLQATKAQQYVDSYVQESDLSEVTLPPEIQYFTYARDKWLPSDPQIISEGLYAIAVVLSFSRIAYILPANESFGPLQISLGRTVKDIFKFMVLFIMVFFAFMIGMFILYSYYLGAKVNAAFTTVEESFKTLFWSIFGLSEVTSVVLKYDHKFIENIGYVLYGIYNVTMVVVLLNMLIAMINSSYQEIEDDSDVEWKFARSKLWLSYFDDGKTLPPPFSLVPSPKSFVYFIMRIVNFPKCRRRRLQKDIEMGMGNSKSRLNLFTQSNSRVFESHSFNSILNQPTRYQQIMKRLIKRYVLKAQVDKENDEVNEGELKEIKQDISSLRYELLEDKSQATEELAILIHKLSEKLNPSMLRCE
The data set is described as follows: Inhibition of human recombinant TRPC3 expressed in HEK293-MSRII cells assessed as carbachol-stimulated Ca2+/Na+ influx after 10 mins by FLIPR assay. The data set is classed as cell-based.

Data set [3] in a line: Cmax in rat at 1.04 mg/kg, iv. Details: dose 1.04 mg/kg, route intravenous. It counts as ADME, organism-based. Particulars: in vivo.
Data set [4] deals with Voltage-dependent L-type calcium channel subunit alpha-1C (Homo sapiens, UniProt Q13936). Briefly: Inhibition of CaV1.2 channel (unknown origin) by patch express-based electrophysiology assay.
Voltage-dependent L-type calcium channel subunit alpha-1C, sequence (Q13936 whole entry): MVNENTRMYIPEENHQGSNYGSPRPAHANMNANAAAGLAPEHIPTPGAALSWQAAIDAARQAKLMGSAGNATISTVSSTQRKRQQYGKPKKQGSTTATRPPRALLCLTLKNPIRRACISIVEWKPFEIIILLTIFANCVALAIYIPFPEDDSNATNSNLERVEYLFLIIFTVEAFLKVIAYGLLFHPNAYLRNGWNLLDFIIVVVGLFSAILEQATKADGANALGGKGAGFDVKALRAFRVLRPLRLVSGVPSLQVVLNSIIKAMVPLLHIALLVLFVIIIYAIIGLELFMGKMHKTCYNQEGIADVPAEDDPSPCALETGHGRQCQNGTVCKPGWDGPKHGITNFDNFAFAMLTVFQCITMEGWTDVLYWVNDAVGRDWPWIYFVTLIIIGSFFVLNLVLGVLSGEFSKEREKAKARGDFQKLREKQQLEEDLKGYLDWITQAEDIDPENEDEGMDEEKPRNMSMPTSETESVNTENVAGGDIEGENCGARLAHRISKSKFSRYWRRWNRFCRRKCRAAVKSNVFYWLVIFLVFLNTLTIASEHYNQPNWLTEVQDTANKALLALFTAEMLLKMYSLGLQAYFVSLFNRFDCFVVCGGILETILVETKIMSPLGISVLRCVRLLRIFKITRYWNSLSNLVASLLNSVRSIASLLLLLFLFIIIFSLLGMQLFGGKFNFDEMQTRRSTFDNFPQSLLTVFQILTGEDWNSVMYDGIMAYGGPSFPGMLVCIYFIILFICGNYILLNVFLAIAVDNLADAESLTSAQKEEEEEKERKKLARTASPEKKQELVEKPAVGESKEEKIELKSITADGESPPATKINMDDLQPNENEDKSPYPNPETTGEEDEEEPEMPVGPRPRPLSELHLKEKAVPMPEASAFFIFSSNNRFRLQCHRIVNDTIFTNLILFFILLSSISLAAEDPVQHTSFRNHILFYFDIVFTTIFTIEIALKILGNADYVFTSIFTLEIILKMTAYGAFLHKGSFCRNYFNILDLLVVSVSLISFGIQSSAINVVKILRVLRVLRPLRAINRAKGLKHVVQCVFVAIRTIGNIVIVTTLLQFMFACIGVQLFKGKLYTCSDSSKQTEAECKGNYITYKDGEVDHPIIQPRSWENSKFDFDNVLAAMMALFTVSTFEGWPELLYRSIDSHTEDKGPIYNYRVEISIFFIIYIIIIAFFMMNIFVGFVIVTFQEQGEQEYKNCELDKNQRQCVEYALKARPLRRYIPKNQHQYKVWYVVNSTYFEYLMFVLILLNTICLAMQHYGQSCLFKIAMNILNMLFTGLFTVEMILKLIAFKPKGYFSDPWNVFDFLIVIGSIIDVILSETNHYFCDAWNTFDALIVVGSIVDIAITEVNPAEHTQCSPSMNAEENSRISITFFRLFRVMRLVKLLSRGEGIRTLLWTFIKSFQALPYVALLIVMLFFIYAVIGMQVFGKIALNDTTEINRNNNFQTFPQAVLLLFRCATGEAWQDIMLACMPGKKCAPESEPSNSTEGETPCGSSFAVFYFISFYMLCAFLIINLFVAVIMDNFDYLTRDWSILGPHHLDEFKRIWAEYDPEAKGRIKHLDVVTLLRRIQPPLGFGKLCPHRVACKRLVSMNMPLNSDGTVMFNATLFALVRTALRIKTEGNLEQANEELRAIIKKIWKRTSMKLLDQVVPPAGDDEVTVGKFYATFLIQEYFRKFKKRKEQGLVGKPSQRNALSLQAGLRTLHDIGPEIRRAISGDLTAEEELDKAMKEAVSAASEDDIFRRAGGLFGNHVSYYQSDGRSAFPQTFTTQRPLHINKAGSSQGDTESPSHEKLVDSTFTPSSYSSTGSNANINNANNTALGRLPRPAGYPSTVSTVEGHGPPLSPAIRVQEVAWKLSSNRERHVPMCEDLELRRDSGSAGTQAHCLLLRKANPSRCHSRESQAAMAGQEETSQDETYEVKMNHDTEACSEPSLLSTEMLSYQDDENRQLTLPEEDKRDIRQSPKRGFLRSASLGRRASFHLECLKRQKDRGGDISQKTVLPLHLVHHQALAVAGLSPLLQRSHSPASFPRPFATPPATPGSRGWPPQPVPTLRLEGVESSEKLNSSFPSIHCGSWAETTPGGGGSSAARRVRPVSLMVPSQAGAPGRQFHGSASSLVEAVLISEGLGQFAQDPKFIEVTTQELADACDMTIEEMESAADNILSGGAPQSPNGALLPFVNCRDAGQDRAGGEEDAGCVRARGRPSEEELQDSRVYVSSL
Data set [5] is described as follows: Clearance in rat at 1.04 mg/kg, iv. The data set is classed as ADME, organism-based. The arrangement: dose 1.04 mg/kg, route intravenous. The settings on record: in vivo.
In another data set the test system is Rattus norvegicus. The data set is described as follows: Dose normalized AUC in rat at 1.04 mg/kg, iv. It counts as ADME, organism-based. Details: dose 1.04 mg/kg, route intravenous. The settings on record: in vivo.
A short description of data set [6]: Oral bioavailability in rat at 1.04 mg/kg. It counts as ADME, organism-based. Particulars: in vivo.
For data set [7], the target named is T2, Short transient receptor potential channel 6 (Homo sapiens, UniProt Q9Y210).
T2 sequence (Q9Y210 whole entry): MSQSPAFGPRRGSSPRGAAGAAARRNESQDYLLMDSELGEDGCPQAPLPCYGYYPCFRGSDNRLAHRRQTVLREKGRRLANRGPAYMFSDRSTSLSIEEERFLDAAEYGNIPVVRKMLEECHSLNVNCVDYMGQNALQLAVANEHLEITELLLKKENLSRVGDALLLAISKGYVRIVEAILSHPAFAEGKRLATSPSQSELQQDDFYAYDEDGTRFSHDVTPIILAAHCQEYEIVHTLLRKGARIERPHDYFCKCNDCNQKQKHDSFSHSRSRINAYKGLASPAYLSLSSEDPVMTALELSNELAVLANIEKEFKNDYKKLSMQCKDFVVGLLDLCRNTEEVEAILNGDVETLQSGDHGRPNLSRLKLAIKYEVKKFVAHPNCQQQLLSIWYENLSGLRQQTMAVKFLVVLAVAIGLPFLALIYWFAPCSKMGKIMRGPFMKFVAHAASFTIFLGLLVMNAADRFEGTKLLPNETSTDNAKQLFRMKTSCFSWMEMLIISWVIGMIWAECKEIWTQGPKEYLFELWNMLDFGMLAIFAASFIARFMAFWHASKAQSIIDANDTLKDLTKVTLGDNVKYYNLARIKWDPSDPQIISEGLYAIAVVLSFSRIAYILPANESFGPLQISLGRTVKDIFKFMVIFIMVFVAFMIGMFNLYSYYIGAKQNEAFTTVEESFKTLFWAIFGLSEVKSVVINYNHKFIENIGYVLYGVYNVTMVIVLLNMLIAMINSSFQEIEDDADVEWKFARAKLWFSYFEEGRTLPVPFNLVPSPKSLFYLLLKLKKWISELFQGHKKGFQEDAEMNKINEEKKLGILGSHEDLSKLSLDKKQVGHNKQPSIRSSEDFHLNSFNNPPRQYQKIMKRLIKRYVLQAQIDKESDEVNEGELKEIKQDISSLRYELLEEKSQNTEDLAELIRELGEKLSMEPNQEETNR
The data set is described as follows: Inhibition of human recombinant TRPC6 expressed in HEK293-MSRII cells assessed as carbachol-stimulated Ca2+/Na+ influx after 10 mins by FLIPR assay. It counts as cell-based.

Data set [8] addresses Transient receptor potential cation channel subfamily V member 4 (Homo sapiens, UniProt Q9HBA0). The data set is described as follows: Inhibition of TRPV4 (unknown origin) by FLIPR assay.
Data set [9] in a line: Mean residence time in rat at 1.04 mg/kg, iv. The data set is classed as ADME, organism-based. The arrangement: dose 1.04 mg/kg, route intravenous. The settings on record: in vivo.
The target of data set [10] is Transient receptor potential cation channel subfamily A member 1 (Homo sapiens, UniProt O75762). The data set is described as follows: Inhibition of TRPA1 (unknown origin) by FLIPR assay.
Data set [11] addresses Voltage-gated inwardly rectifying potassium channel KCNH2 (Homo sapiens, UniProt Q12809). The data set is described as follows: Inhibition of human ERG channel by patch express-based electrophysiology assay.
The target of data set [12] is Sodium channel protein type 5 subunit alpha (Homo sapiens, UniProt Q14524). The data set is described as follows: Inhibition of NaV1.5 channel (unknown origin) by patch express-based electrophysiology assay.

Transient receptor potential cation channel subfamily V member 1, sequence (Q8NER1 whole entry): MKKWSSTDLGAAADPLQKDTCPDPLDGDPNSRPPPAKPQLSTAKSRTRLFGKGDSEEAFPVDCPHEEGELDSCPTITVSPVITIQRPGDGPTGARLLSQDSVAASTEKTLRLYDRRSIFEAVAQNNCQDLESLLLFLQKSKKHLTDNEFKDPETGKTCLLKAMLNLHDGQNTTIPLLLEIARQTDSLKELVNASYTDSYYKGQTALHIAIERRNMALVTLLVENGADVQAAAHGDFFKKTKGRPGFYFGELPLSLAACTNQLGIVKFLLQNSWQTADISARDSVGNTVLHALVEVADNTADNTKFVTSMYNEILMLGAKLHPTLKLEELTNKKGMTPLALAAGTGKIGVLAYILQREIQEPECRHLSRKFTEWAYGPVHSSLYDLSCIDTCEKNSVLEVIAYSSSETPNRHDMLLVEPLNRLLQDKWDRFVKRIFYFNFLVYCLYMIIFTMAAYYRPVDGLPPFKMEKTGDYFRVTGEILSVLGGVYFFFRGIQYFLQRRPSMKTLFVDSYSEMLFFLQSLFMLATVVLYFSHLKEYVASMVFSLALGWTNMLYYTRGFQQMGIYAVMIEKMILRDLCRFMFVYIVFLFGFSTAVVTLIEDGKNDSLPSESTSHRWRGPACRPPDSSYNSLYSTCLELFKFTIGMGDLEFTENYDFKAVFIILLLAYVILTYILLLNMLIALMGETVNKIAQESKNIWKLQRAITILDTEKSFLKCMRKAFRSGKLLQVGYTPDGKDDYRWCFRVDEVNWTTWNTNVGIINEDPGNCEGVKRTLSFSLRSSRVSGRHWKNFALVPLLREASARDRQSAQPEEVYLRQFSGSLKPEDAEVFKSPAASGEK
Transient receptor potential cation channel subfamily V member 4, sequence (Q9HBA0 whole entry): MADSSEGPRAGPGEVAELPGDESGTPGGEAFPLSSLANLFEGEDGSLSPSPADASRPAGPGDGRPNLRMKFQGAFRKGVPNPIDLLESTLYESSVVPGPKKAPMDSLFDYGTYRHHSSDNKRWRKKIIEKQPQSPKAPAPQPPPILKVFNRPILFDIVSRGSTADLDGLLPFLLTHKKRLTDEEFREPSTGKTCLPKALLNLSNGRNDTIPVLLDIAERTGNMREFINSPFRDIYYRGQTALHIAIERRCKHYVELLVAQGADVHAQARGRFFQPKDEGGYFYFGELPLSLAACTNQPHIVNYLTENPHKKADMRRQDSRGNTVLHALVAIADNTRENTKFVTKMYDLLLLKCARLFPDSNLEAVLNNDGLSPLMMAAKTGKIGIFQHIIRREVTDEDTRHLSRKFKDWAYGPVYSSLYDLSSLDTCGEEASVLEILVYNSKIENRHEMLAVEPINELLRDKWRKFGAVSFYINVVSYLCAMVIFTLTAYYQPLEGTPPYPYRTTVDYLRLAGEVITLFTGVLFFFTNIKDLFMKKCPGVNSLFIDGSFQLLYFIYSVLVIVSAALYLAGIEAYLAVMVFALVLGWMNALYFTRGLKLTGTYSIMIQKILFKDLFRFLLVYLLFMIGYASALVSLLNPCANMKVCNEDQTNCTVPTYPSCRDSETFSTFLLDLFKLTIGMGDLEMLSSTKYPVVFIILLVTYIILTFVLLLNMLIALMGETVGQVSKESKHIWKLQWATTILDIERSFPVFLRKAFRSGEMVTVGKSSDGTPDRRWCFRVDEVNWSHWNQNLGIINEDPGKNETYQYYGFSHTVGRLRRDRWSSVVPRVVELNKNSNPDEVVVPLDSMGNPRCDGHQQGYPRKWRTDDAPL
Voltage-gated inwardly rectifying potassium channel KCNH2, sequence (Q12809 whole entry): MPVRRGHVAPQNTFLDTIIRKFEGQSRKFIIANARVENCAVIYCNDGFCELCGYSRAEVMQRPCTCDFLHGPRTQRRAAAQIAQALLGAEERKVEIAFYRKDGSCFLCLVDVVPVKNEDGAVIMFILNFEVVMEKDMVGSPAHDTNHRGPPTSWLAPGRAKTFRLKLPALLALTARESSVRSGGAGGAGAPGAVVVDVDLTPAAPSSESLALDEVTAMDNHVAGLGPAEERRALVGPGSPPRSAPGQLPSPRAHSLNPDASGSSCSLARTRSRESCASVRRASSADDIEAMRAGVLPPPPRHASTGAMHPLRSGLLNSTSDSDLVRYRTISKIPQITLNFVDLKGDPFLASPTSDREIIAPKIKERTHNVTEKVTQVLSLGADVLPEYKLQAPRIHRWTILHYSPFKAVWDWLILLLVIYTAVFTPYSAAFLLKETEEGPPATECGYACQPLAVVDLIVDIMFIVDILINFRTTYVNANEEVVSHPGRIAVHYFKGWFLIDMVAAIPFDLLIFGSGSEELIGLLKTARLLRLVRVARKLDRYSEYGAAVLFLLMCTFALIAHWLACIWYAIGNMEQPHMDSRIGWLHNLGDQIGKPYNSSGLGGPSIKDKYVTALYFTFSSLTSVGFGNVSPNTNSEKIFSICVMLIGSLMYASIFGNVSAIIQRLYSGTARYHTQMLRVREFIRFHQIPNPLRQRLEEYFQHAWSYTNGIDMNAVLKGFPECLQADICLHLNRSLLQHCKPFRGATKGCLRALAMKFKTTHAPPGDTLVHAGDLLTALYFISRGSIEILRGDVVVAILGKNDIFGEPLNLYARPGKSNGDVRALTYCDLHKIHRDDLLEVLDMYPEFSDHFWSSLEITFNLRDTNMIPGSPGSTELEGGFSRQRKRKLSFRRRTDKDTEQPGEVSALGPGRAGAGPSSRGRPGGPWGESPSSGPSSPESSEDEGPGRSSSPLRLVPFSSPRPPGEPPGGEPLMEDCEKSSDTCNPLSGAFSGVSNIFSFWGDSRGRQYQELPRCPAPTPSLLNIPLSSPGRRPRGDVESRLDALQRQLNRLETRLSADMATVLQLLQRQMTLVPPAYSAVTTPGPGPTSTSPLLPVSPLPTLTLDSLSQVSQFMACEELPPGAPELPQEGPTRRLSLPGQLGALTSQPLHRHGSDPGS

Regarding `Cc1ccc(Nc2nc(C(=O)N3CCCC(C)C3C)cs2)cc1` (stereo not drawn), the concentration for half-maximal inhibition (IC50) came out at 1.26 µM in data set [1]; 0.25 µM in data set [2]; 10 µM in data set [4]; 0.08 µM in data set [7]; 6.3 µM in data set [8]; 8 µM in [10]. Also, the results for the IC50 in data set [11] and in data set [12] were > 50 µM and 50 µM, respectively. In addition, the Cmax in data set [3] was 310 ng/mL. Moreover, the clearance in data set [5] came to 75 mL/min/kg. The compound further registered an AUC/dose in the data set with Rattus norvegicus of 0.2 kg·L·h. Moreover, in data set [6], the bioavailability was < 1%. This compound also gave an MRT in data set [9] of 2.8 h.

As usually defined, the IC50 is the concentration at which inhibition is half-maximal. Usually Cmax stands for the peak of the concentration-time curve. Usually clearance stands for the rate of elimination divided by the concentration. Read a low clearance as inefficient removal. Usually bioavailability stands for dose-corrected exposure relative to a reference, in per cent. Low values mean little systemic uptake, high ones much systemic uptake. By MRT is commonly meant a mean duration of stay, worked out from the concentration-time curve.

For the origin of these results see ChEMBL document CHEMBL2417435, “The discovery of potent blockers of the canonical transient receptor channels, TRPC3 and TRPC6, based on an anilino-thiazole pharmacophore” (Bioorg Med Chem Lett, 2013).
